Like-named read-outs stand apart in the source and are kept apart here.
What was measured:
[1] = CBD release from micelles through the HA hydrogel into simulated tear fluid, HPLC; type: physicochemical; conditions: after 12 h, simulated tear fluid as receiving medium
Experimental: Next, an assay of CBD release from micelles through the HA hydrogel was carried out for 24 hours (the time that the gel will be in contact with the eye), using STF (simulated tear fluid: NaCl (0.68 g), NaHCO3 (0.22 g), CaCl2·2H2O (0.008 g), KCI (0.14 g), and type II water to a total volume of 100 ml, filtered through a 0.2 µm pore size filter) as the receiving medium in order to recapitulate as much as possible release in tears, and taking samples at 1, 3, 5 8, 12 and 24 h. High-Performance Liquid Chromatography (HPLC) was the analytical technique that allowed the separation, identification (by comparison with standard patterns) and quantification, using a reverse phase and mobile phase under certain conditions; a mixture of methanol and water (85:15). The other conditions are as follows; flow rate of 1.0 ml/min, injection volume 10 µl and wavelength at 220 nm. Under the conditions mentioned above, a good determination of the CBD can be carried out.

DBA/2J mice [2] = assay: Intraocular pressure (IOP) by rebound tonometry in glaucoma model mice; type: in vivo
Experimental: The study of the effects of topical ophthalmic CBD administration in micelles was carried out with outbred CD-1 mice and inbred DBA/2J mice. Male JAXTM DBA/2J mice homozygous for null mutations in Tyrplb and GpnmbR150X (-/-) were purchased from Charles River Laboratories (France). CD-1® IGS male mice were obtained from the animal facilities of Universidad Rey Juan Carlos, using 51 mice in total for the study . All animals were 4 weeks-old at the beginning of the study. They were maintained in a temperature (23 ± 1 °C) and humidity (50-55%) controlled room, under a 12 h light/dark cycle (lights off between 19:00 and 07.00 h). Animals had free access to standard laboratory rat chow (Harlan Laboratories Inc.) and tap water. Trained investigators blind to drug treatment conducted all the behavioural assays in groups of two. Experiments were performed between 8:00 and 11:00 a.m. in conscious animals. All animal procedures were designed and conducted in accordance with a protocol approved by the Ethical Committee of Universidad Rey Juan Carlos and by the Autonomous Region of Madrid (PROEX 187.3/21) and followed the guidelines for the Care and Use of Laboratory Animals of the European Union Directive (2010/63/EU) and Spanish regulations (Law 32/2007, RD 53/2013 and order ECC/566/2015). A total of 51 male mice were utilised in this study, as explained in section 2.2 below. The number of animals used and their suffering were minimised
(§1) The research plan designed with the animal model is depicted in Fig. 3. It comprises three main phases: • An ageing phase, which includes an initial 3-month period of quarantine and acclimatisation and an additional 4.5-month period during which IOP (from month 3 until month 7,5), tear production (from month 5,5 until month 7,5) and tactile sensitivity (from month 4 to month 7,5) are monitored to obtain a baseline for such magnitudes. • A treatment phase, beginning when mice were 8 months old, where DBA/2J and CD-1 animals were randomly divided into two groups: treated and untreated. In this phase, treated mice receive CBD doses. The treatment phase comprises 3 periods: an acute period of 1 day, where, at time 0 of the phase, mice receive a CBD dose and are monitored for 24 hours; an initial chronic period of 18 days (days 2 to 19 of the treatment phase), where mice receive a daily CBD dose, and a second chronic period of other […] (days 21 to 37 of the treatment phase), where mice receive 2 daily CBD doses. From the end of the ageing phase to the end of the following phase, the wear-off phase, IOP, tear production and tactile sensitivity are monitored three times per week, following an alternative measuring system: on a same day, IOP was monitored in two groups, while tear production and tactile sensitivity were monitored in the other two groups, while, on the following measuring day, tear production and tactile sensitivity were monitored in the first two groups and IOP was monitored in the other two groups. • A wear-off phase, during which mice receive no treatment and IOP tear production and tactile sensitivity are monitored at 24, 48, 72 and 96 hours after the beginning of the phase, following the same alternative system of the treatment phase.
CBD was administered as part of a micellar solution prepared as described in Example 1. In particular, in each dose, 5 µl of the micellar solution (with 5 mM CBD) was administered to one eye of each mice, while the other eye remained untreated or received only the vehicle, type II water. Treatment was always applied to the right eye. A different group of animals was treated during two weeks with the vehicle to ensure that it had no effect on IOP, corneal mechanical sensitivity or spontaneous production of tear.
Measurements during the chronic treatment phase were always taken prior to daily administration. At each time point indicated in the chart of Fig. 3, rebound tonometry or von Frey test was performed in the same group of animals. […]

CD-1 mice [3] = assay: Corneal mechanical sensitivity, von Frey test; type: in vivo; conditions: treated vs untreated
From the text: as §1, with “phase. […]” for “phase.”
(§2) The study was carried out with the same DBA/2J animals used in the study of section 2.3, taking measures of tactile sensitivity in days different from those where IOP was measured, as scheduled in Fig. 3 and Table 3. […]
(§3) Corneal mechanical sensitivity was measured following the von Frey test. […]

DBA/2J mice [4] = assay: Corneal mechanical sensitivity, von Frey test; type: in vivo
From the text: as §1, with “phase. […]” for “phase.”
as §2, §3

CD-1 mice [5] = assay: Spontaneous production of tear, Schirmer test; type: in vivo; conditions: treated vs untreated
From the text: (§4) The research plan designed with the animal model is depicted in Fig. 3. It comprises three main phases: • An ageing phase, which includes an initial 3-month period of quarantine and acclimatisation and an additional 4.5-month period during which IOP (from month 3 until month 7,5), tear production (from month 5,5 until month 7,5) and tactile sensitivity (from month 4 to month 7,5) are monitored to obtain a baseline for such magnitudes. • A treatment phase, beginning when mice were 8 months old, where DBA/2J and CD-1 animals were randomly divided into two groups: treated and untreated. In this phase, treated mice receive CBD doses. The treatment phase comprises 3 periods: an acute period of 1 day, where, at time 0 of the phase, mice receive a CBD dose and are monitored for 24 hours; an initial chronic period of 18 days (days 2 to 19 of the treatment phase), where mice receive a daily CBD dose, and a second chronic period of other 18 days (days 21 to 37 of the treatment phase), where mice receive 2 daily CBD doses. […]
(§5) Their analysis was carried out following the Von Schirmmer test, which consisted of an ophthalmologic examination used to measure tear production in the eyes by inserting a small special piece of absorbent paper in the corner of the eye to measure the amount of tears produced in a determined period of time. […] Then, the area of the wet test paper was measured (length x width).

DBA/2J mice [6] = assay: Spontaneous production of tear, Schirmer test; type: in vivo; conditions: treated vs untreated
From the text: as §4, §5

[7] = Body weight and welfare (actual severity of the procedure); type: in vivo, mice
Experimental: In order to assess the actual severity of the treatment at the end of the procedure, the rates of mortality and morbidity were also recorded. Additionally, body weight measurements were […] during the study, as body weight is considered to be a sign of welfare.
The values obtained are represented in Fig. 11. Additionally, the rate with regard to the value at month 7.8 (where CBD has not been administered yet) was calculated by one-way ANOVA followed by Dunnett's Multiple Comparisons test, a statistical test used to compare multiple treatment groups with a control group. Ia applicable when multiple treatment groups are present and it is desired it determine if any of them are statistically different from the control group, is often used when it is assumed that the variance is equal among all groups The results were over 10% decrease in body weight is normally considered as a severe effect of welfare, and such a level of decrease was not found in the present study for none of the mice.

[8] = topical, cited from earlier work
wildtype mice = conditions: high dose, soya oil/water emulsion; cited from earlier work
CB1 knockout mice = conditions: high dose, soya oil/water emulsion; cited from earlier work
[9] = Acute, hour 1 after single dose
[10] = Chronic, day 12, one daily dose
[11] = Chronic, day 16, one daily dose
[12] = Chronic, day 21, two daily doses
[13] = Chronic, day 26, two daily doses
[14] = Chronic, day 30, two daily doses
[15] = Chronic, day 35, two daily doses
[16] = one week after finishing the treatment

C=C(C)[C@@H]1CCC(C)=C[C@H]1c1c(O)cc(CCCCC)cc1O [CBD, cannabidiol]
CBD release [1]: higher than 90%
Δ[contra-(treated)-contra-(non-treated)] (DBA/2J mice [2]; [9]): +95%
Δ[ipsi-(treated)-ipsi-(non-treated)] (DBA/2J mice [2]; [9]): +69%
IOP ratio tn/t0, ipsi- (treated) (DBA/2J mice [2]; Acute, hour 1 after single dose, treated ipsilateral eye, t0 = month 3.0): 180%
IOP ratio tn/t0, contra- (treated) (DBA/2J mice [2]; Acute, hour 1 after single dose, untreated contralateral eye, t0 = month 3.0): 192%
Δ[contra-(treated)-contra-(non-treated)] (DBA/2J mice [2]; Chronic, day 3, one daily dose): +80%
Δ[ipsi-(treated)-ipsi-(non-treated)] (DBA/2J mice [2]; Chronic, day 3, one daily dose): +35%
IOP ratio tn/t0, contra- (treated) (DBA/2J mice [2]; Chronic, day 3, one daily dose, contralateral eye): 131%
IOP ratio tn/t0, ipsi- (treated) (DBA/2J mice [2]; Chronic, day 3, one daily dose, ipsilateral eye): 130%
Δ[contra-(treated)-contra-(non-treated)] (DBA/2J mice [2]; Chronic, day 7, one daily dose): +49%
Δ[ipsi-(treated)-ipsi-(non-treated)] (DBA/2J mice [2]; Chronic, day 7, one daily dose): -35%
IOP ratio tn/t0, contra- (treated) (DBA/2J mice [2]; Chronic, day 7, one daily dose, contralateral eye): 119%
IOP ratio tn/t0, ipsi- (treated) (DBA/2J mice [2]; Chronic, day 7, one daily dose, ipsilateral eye): 101%
Δ[contra-(treated)-contra-(non-treated)] (DBA/2J mice [2]; [10]): +30%
Δ[ipsi-(treated)-ipsi-(non-treated)] (DBA/2J mice [2]; [10]): -89%
IOP ratio tn/t0, contra- (treated) (DBA/2J mice [2]; Chronic, day 12, one daily dose, contralateral eye): 128%
IOP ratio tn/t0, ipsi- (treated) (DBA/2J mice [2]; Chronic, day 12, one daily dose, ipsilateral eye): 104%
Δ[contra-(treated)-contra-(non-treated)] (DBA/2J mice [2]; [11]): -85%
Δ[ipsi-(treated)-ipsi-(non-treated)] (DBA/2J mice [2]; [11]): -174%
IOP ratio tn/t0, contra- (treated) (DBA/2J mice [2]; Chronic, day 16, one daily dose, contralateral eye): 117%
IOP ratio tn/t0, ipsi- (treated) (DBA/2J mice [2]; Chronic, day 16, one daily dose, ipsilateral eye): 77%
Δ[contra-(treated)-contra-(non-treated)] (DBA/2J mice [2]; [12]): -60%
Δ[ipsi-(treated)-ipsi-(non-treated)] (DBA/2J mice [2]; [12]): -81%
IOP ratio tn/t0, contra- (treated) (DBA/2J mice [2]; Chronic, day 21, two daily doses, contralateral eye): 100%
IOP ratio tn/t0, ipsi- (treated) (DBA/2J mice [2]; Chronic, day 21, two daily doses, ipsilateral eye): 90%
Δ[contra-(treated)-contra-(non-treated)] (DBA/2J mice [2]; [13]): -137%
Δ[ipsi-(treated)-ipsi-(non-treated)] (DBA/2J mice [2]; [13]): -79%
IOP ratio tn/t0, contra- (treated) (DBA/2J mice [2]; Chronic, day 26, two daily doses, contralateral eye): 97%
IOP ratio tn/t0, ipsi- (treated) (DBA/2J mice [2]; Chronic, day 26, two daily doses, ipsilateral eye): 95%
Δ[contra-(treated)-contra-(non-treated)] (DBA/2J mice [2]; [14]): -119%
Δ[ipsi-(treated)-ipsi-(non-treated)] (DBA/2J mice [2]; [14]): -159%
IOP ratio tn/t0, contra- (treated) (DBA/2J mice [2]; Chronic, day 30, two daily doses, contralateral eye): 113%
IOP ratio tn/t0, ipsi- (treated) (DBA/2J mice [2]; Chronic, day 30, two daily doses, ipsilateral eye): 68%
Δ[contra-(treated)-contra-(non-treated)] (DBA/2J mice [2]; [15]): -88%
Δ[ipsi-(treated)-ipsi-(non-treated)] (DBA/2J mice [2]; [15]): -82%
IOP ratio tn/t0, contra- (treated) (DBA/2J mice [2]; Chronic, day 35, two daily doses, contralateral eye): 96%
IOP ratio tn/t0, ipsi- (treated) (DBA/2J mice [2]; Chronic, day 35, two daily doses, ipsilateral eye): 81%
Δ[contra-(treated)-contra-(non-treated)] (DBA/2J mice [2]; Wear-off, day 38, no treatment): -44%
Δ[ipsi-(treated)-ipsi-(non-treated)] (DBA/2J mice [2]; Wear-off, day 38, no treatment): -78%
IOP ratio tn/t0, contra- (treated) (DBA/2J mice [2]; Wear-off, day 38, no treatment, contralateral eye): 64%
IOP ratio tn/t0, ipsi- (treated) (DBA/2J mice [2]; Wear-off, day 38, no treatment, ipsilateral eye): 81%
Δ[contra-(treated)-contra-(non-treated)] (DBA/2J mice [2]; Wear-off, day 40, no treatment): -34%
Δ[ipsi-(treated)-ipsi-(non-treated)] (DBA/2J mice [2]; Wear-off, day 40, no treatment): -70%
IOP ratio tn/t0, contra- (treated) (DBA/2J mice [2]; Wear-off, day 40, no treatment, contralateral eye): 171%
IOP ratio tn/t0, ipsi- (treated) (DBA/2J mice [2]; Wear-off, day 40, no treatment, ipsilateral eye): 165%
IOP relative to the untreated group (DBA/2J mice [2]; acute administration (one dose)): increased IOP
IOP difference relative to the untreated group (DBA/2J mice [2]; after giving two doses (daily)): -80%
IOP compared with the untreated group (DBA/2J mice [2]; [16]): still reduced
IOP relative to the untreated group, late phase (DBA/2J mice [2]; repeated administration, 7 days on): decreased values
corneal mechanical sensitivity (CD-1 mice [3]): no significant effect
corneal mechanical sensitivity relative to the untreated group (DBA/2J mice [4]; acute administration): decreased mechanical sensitivity
corneal mechanical sensitivity (DBA/2J mice [4]; [16]): still reduced
spontaneous production of tear (CD-1 mice [5]): no significant effect
spontaneous production of tear (DBA/2J mice [6]): no significant effect
welfare ([7]; ocular topical administration): no severe affection of welfare
body weight decrease with regard to the weight before beginning the treatment ([7]; phase of repeated CBD administration, DBA/2J and CD-1 mice, larger in CD-1): lower than 10%
effect on IOP ([8]; delivered in mineral oil): IOP-lowering effect
effect on IOP ([8]; delivered in sesame oil): absent
effect on IOP (wildtype mice): increases IOP
effect on IOP (CB1 knockout mice): decreases IOP
